In paper PMC9313321 (Biomedicines, 2022):
Entries after “also recorded” stand apart in the source; their conditions may differ.

Tested on: SH-SY5Y cells
Assay: Neuroprotection against Fe/Ascorbate toxicity (MTT reduction)
Format: cell-based, human
Conditions: 1 h pre-incubation + 24 h with Fe 2.5 mM/Asc 5 mM, 5a at 2 µM
Protocol: SH-SY5Y human neuroblastoma cells (ATCC-CRL-2266) were kept in culture using Dulbecco’s Modified Eagle Medium (DMEM) (Gibco-Invitrogen, Life Technologies Ltd., Waltham, MA, USA) containing 10% heat-inactivated fetal bovine serum (FBS), 50 U mL^−1 penicillin and 50 μg mL^−1 streptomycin. Incubation of the cells occurred at 37 °C in 5% CO2. The toxicity of the compounds was tested through cell viability assays, with cells seeded with a density of 0.24 × 10^6 cells mL^−1. DMSO was used to dissolve each tested compound (4a–4d, 5a, 5b), affording stock solutions with concentrations of 25 mM. Aliquots of these solutions were stored at −20 °C. Concentrations from 1 μM to 10 μM were screened in order to select the highest non-toxic concentration of each compound. Consequently, compounds 4a, 4b and 5b were tested at 1 μM final concentration; compounds 4c and 5a were tested at 2 μM final concentration; compound 4d was tested at a final concentration of 3 μM. The DMSO concentrations in the culture media were lower than 0.05% (v/v) and the viability of the SH-SY5Y cells was not altered in a detectable manner. […]
The colorimetric MTT (3-(4,5-dimethylthiazol-2-yl)-2,5-diphenyltetrazolium bromide) reduction assay was used to determine cell viability. […] The absorbance of each well was measured at 570 nm. […]
All data were expressed as means ± SEMs of at least five independent experiments performed in duplicate. […]

## CCN(C)C(=O)Oc1cccc(NC(=O)c2cccc3[nH]c(-c4ccccc4O)nc23)c1 [Compound 5a, 3-(2-(2-Hydroxyphenyl)-1H-benzo[d]imidazole-4-carboxamido)phenyl Ethylmethylcarbamate]
  Neuroprotective effect against Fe/Ascorbate toxicity (cell viability, MTT): statistically significant neuroprotective effect; also recorded: best neuroprotective capacities
